Patent US6362369B1, “Phthalic acid diamide derivatives fluorine-containing aniline compounds as starting material, agricultural and horticultural insecticides, and a method for application of the insecticides” (Nihon Nohyaku Co., Ltd., priority 1997, dated 2002)

Experiments:
Type in all cases: in vivo
[1] = test system: diamondback moth (Plutella xylostella); assay: Insecticidal effect on diamondback moth (Test Example 1); settings: diamondback moth; for Insecticidal effect (Test Example 1), judged from mortality: judged by the criterion of Test Example 1; for Insecticidal effect, Test Example 1: judged by the mortality criterion of Test Example 1
Outline: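 Oviposition by adults on Chinese cabbage seedling; immersion; air-dry; 25° C room. Count of hatched larvae at day 6 post-immersion → mortality → effect graded by criterion. Triplicate, 10 insects/group.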

[2] = test system: common cutworm (Spodoptera Litura); assay: Insecticidal effect on common cutworm (Test Example 2); settings: 500 ppm, 25° C.; for Insecticidal effect (Test Example 2), judged from mortality: 8 days after inoculation; for Insecticidal effect, Test Example 2: cabbage leaf immersed
Outline: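 Mortality was scored 8 days post-inoculation, using three groups of 10 second-instar larvae kept at 25 °C in closed 9 cm dishes on air-dried treated material. The insecticidal effect was graded from calculated mortality by a set criterion.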

[3] = test system: rice leafroller (Cnaphalocrocis medinalis); assay: Insecticidal effect on rice leafroller (Test Example 3); settings: 500 ppm, 25° C., humidity 70%; for Insecticidal effect (Test Example 3), judged from mortality: 4 days after inoculation; for Insecticidal effect, Test Example 3: rice lamina immersed
Outline: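 Insecticidal effect is judged by a predefined criterion from dead/alive counts four days after infesting air-dried lamina with third-instar larvae, kept on moistened filter paper at 25° C, 70% humidity.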

[4] = cabbage leaf dip, second-instar larvae of common cutworm
[5] = rice lamina dip, third-instar larvae of rice leafroller
[6] = second-instar larvae of common cutworm, eight days after inoculation
[7] = third-instar larvae of rice leafroller, four days after inoculation

Structure (SMILES): Cc1cc(C(F)(F)C(F)(F)F)ccc1NC(=O)c1cccc(Cl)c1C(=O)NC(C)(C)C(Br)CBr (racemic) [compound 1603]
- Insecticidal effect (Test Example 1), judged from mortality [1]: A (100)
- Insecticidal effect (Test Example 2), judged from mortality [2, 4]: A (100)
- Insecticidal effect (Test Example 3), judged from mortality [3, 5]: A (100)

Structure (SMILES): CC(C)NC(=O)c1c(I)cccc1C(=O)Nc1ccc2c(c1Cl)OC(F)(F)C(F)O2 (racemic) [compound 1679]
- Insecticidal effect (Test Example 1), judged from mortality [1]: A (100)
- Insecticidal effect (Test Example 2), judged from mortality [2, 4]: A (100)
- Insecticidal effect (Test Example 3), judged from mortality [3, 5]: A (100)

Structure (SMILES): CC(C)NC(=O)c1c(I)cccc1C(=O)Nc1ccc2c(c1Cl)OC(F)C(F)(F)O2 (racemic) [compound 1680]
- Insecticidal effect (Test Example 1), judged from mortality [1]: A (100)
- Insecticidal effect (Test Example 2), judged from mortality [2, 4]: A (100)
- Insecticidal effect (Test Example 3), judged from mortality [3, 5]: A (100)

Structure (SMILES): Cc1cc(OC(F)(F)C(F)F)ccc1NC(=O)c1cccc(Cl)c1C(=O)NC(C)C [Compound No. 141, 3-chloro-N^1-[4-(1,1,2,2-tetrafluoroethoxy)-2-methylphenyl]-N^2-isopropylphthalic acid diamide]
- Insecticidal effect, Test Example 1 [1]: A (100)
- Insecticidal effect, Test Example 2 [2, 6]: A (100)
- Insecticidal effect, Test Example 3 [3, 7]: A (100)

Structure (SMILES): Cc1cc(OC(F)(F)C(F)F)ccc1NC(=O)c1c(Cl)cccc1C(=O)NC(C)C [Compound No. 239, 6-chloro-N^1-[4-(1,1,2,2-tetrafluoroethoxy)-2-methylphenyl]-N^2-isopropylphthalic acid diamide]
- Insecticidal effect, Test Example 1 [1]: A (100)
- Insecticidal effect, Test Example 2 [2, 6]: A (100)
- Insecticidal effect, Test Example 3 [3, 7]: A (100)

Structure (SMILES): CC(C)NC(=O)c1c(Br)cccc1C(=O)Nc1ccc(OC(F)(F)F)cc1 [Compound No. 262, 3-bromo-N^1-(4-trifluoromethoxyphenyl)-N^2-isopropylphthalic acid diamide]
- Insecticidal effect, Test Example 1 [1]: A (100)
- Insecticidal effect, Test Example 2 [2, 6]: A (100)
- Insecticidal effect, Test Example 3 [3, 7]: D (79-50)

Structure (SMILES): Cc1cc(C(F)(F)C(F)(F)C(F)(F)C(F)(F)F)ccc1NC(=O)c1cccc(Br)c1C(=O)NC(C)C [Compound No. 281, 3-bromo-N^1-(4-nonafluorobutyl-2-methylphenyl)-N^2-isopropyl-phthalic acid diamide]
- Insecticidal effect, Test Example 1 [1]: A (100)
- Insecticidal effect, Test Example 2 [2, 6]: A (100)
- Insecticidal effect, Test Example 3 [3, 7]: A (100)

Structure (SMILES): Cc1ccc(Cl)cc1NC(=O)c1cccc([N+](=O)[O-])c1C(N)=O [compound 1]
- Insecticidal effect, Test Example 1 [1]: D (79-50)
- Insecticidal effect, Test Example 2 [2, 6]: D (79-50)
- Insecticidal effect, Test Example 3 [3, 7]: A (100)

Structure (SMILES): CCNC(=O)c1c(Cl)cccc1C(=O)Nc1ccc(OC(F)F)cc1C [compound 8]
- Insecticidal effect, Test Example 1 [1]: A (100)
- Insecticidal effect, Test Example 2 [2, 6]: A (100)
- Insecticidal effect, Test Example 3 [3, 7]: A (100)

Structure (SMILES): CCNC(=O)c1c(C(=O)Nc2cc(Cl)ccc2C)cccc1[N+](=O)[O-] [compound 10]
- Insecticidal effect, Test Example 1 [1]: A (100)
- Insecticidal effect, Test Example 2 [2, 6]: D (79-50)
- Insecticidal effect, Test Example 3 [3, 7]: D (79-50)

Structure (SMILES): CCNC(=O)c1c(C(=O)Nc2ccc(OC(F)F)cc2C)cccc1[N+](=O)[O-] [compound 11]
- Insecticidal effect, Test Example 1 [1]: A (100)
- Insecticidal effect, Test Example 2 [2, 6]: C (89-80)
- Insecticidal effect, Test Example 3 [3, 7]: C (89-80)

Structure (SMILES): CC(C)NC(=O)c1ccccc1C(=O)Nc1ccc(C(F)(F)C(F)(F)C(F)(F)F)cc1 [compound 27]
- Insecticidal effect, Test Example 1 [1]: A (100)
- Insecticidal effect, Test Example 2 [2, 6]: A (100)
- Insecticidal effect, Test Example 3 [3, 7]: C (89-80)

Structure (SMILES): CC(C)NC(=O)c1ccccc1C(=O)Nc1ccc(OC(F)(F)F)cc1 [compound 29]
- Insecticidal effect, Test Example 1 [1]: A (100)
- Insecticidal effect, Test Example 2 [2, 6]: B (99-90)
- Insecticidal effect, Test Example 3 [3, 7]: A (100)

Structure (SMILES): CC(C)NC(=O)c1ccccc1C(=O)Nc1ccc(OC(F)(F)C(F)OC(F)(F)C(F)(F)C(F)(F)F)cc1 (stereo not drawn) [compound 30]
- Insecticidal effect, Test Example 1 [1]: A (100)
- Insecticidal effect, Test Example 2 [2, 6]: A (100)
- Insecticidal effect, Test Example 3 [3, 7]: A (100)

Structure (SMILES): CC(C)NC(=O)c1ccccc1C(=O)Nc1ccc(Cl)cc1Cl [compound 42]
- Insecticidal effect, Test Example 1 [1]: A (100)
- Insecticidal effect, Test Example 2 [2, 6]: D (79-50)
- Insecticidal effect, Test Example 3 [3, 7]: A (100)

Structure (SMILES): CC(C)NC(=O)c1ccccc1C(=O)Nc1ccc(OC(F)(F)F)cc1Cl [compound 47]
- Insecticidal effect, Test Example 1 [1]: A (100)
- Insecticidal effect, Test Example 2 [2, 6]: D (79-50)
- Insecticidal effect, Test Example 3 [3, 7]: A (100)

Structure (SMILES): CC(C)NC(=O)c1ccccc1C(=O)Nc1ccc(OC(F)(F)F)cc1Br [compound 48]
- Insecticidal effect, Test Example 1 [1]: A (100)
- Insecticidal effect, Test Example 2 [2, 6]: B (99-90)
- Insecticidal effect, Test Example 3 [3, 7]: A (100)

Structure (SMILES): Cc1c(Cl)cccc1NC(=O)c1ccccc1C(=O)NC(C)C [compound 49]
- Insecticidal effect, Test Example 1 [1]: A (100)
- Insecticidal effect, Test Example 2 [2, 6]: A (100)
- Insecticidal effect, Test Example 3 [3, 7]: A (100)

Structure (SMILES): Cc1cc(Cl)ccc1NC(=O)c1ccccc1C(=O)NC(C)C [compound 50]
- Insecticidal effect, Test Example 1 [1]: A (100)
- Insecticidal effect, Test Example 2 [2, 6]: A (100)
- Insecticidal effect, Test Example 3 [3, 7]: A (100)

Structure (SMILES): Cc1cc(Br)ccc1NC(=O)c1ccccc1C(=O)NC(C)C [compound 52]
- Insecticidal effect, Test Example 1 [1]: A (100)
- Insecticidal effect, Test Example 2 [2, 6]: A (100)
- Insecticidal effect, Test Example 3 [3, 7]: A (100)

Structure (SMILES): Cc1cc(C(F)(F)C(F)(F)F)ccc1NC(=O)c1ccccc1C(=O)NC(C)C [compound 55]
- Insecticidal effect, Test Example 1 [1]: A (100)
- Insecticidal effect, Test Example 2 [2, 6]: B (99-90)
- Insecticidal effect, Test Example 3 [3, 7]: A (100)

Structure (SMILES): Cc1cc(C(F)(F)C(F)(F)C(F)(F)F)ccc1NC(=O)c1ccccc1C(=O)NC(C)C [compound 56]
- Insecticidal effect, Test Example 1 [1]: A (100)
- Insecticidal effect, Test Example 2 [2, 6]: A (100)
- Insecticidal effect, Test Example 3 [3, 7]: A (100)

Structure (SMILES): Cc1cc(OC(F)F)ccc1NC(=O)c1ccccc1C(=O)NC(C)C [compound 58]
- Insecticidal effect, Test Example 1 [1]: A (100)
- Insecticidal effect, Test Example 2 [2, 6]: A (100)
- Insecticidal effect, Test Example 3 [3, 7]: A (100)

Structure (SMILES): Cc1cc(OC(F)(F)C(F)F)ccc1NC(=O)c1ccccc1C(=O)NC(C)C [compound 60]
- Insecticidal effect, Test Example 1 [1]: A (100)
- Insecticidal effect, Test Example 2 [2, 6]: A (100)
- Insecticidal effect, Test Example 3 [3, 7]: A (100)

Structure (SMILES): Cc1c(NC(=O)c2ccccc2C(=O)NC(C)C)cccc1OC(F)(F)C(F)Cl (stereo not drawn) [compound 61]
- Insecticidal effect, Test Example 1 [1]: A (100)
- Insecticidal effect, Test Example 2 [2, 6]: B (99-90)
- Insecticidal effect, Test Example 3 [3, 7]: A (100)

Structure (SMILES): Cc1cc(OC(F)(F)C(F)Cl)ccc1NC(=O)c1ccccc1C(=O)NC(C)C (stereo not drawn) [compound 62]
- Insecticidal effect, Test Example 1 [1]: A (100)
- Insecticidal effect, Test Example 2 [2, 6]: A (100)
- Insecticidal effect, Test Example 3 [3, 7]: A (100)

Structure (SMILES): Cc1cc(C(F)(F)C(F)(F)Br)ccc1NC(=O)c1ccccc1C(=O)NC(C)C [compound 63]
- Insecticidal effect, Test Example 1 [1]: A (100)
- Insecticidal effect, Test Example 2 [2, 6]: B (99-90)
- Insecticidal effect, Test Example 3 [3, 7]: A (100)

Structure (SMILES): Cc1cc(C(F)(F)C(F)(Cl)Cl)ccc1NC(=O)c1ccccc1C(=O)NC(C)C [compound 64]
- Insecticidal effect, Test Example 1 [1]: A (100)
- Insecticidal effect, Test Example 2 [2, 6]: B (99-90)
- Insecticidal effect, Test Example 3 [3, 7]: A (100)

Structure (SMILES): Cc1cc(OC(F)(F)C(F)C(F)(F)F)ccc1NC(=O)c1ccccc1C(=O)NC(C)C (stereo not drawn) [compound 65]
- Insecticidal effect, Test Example 1 [1]: A (100)
- Insecticidal effect, Test Example 2 [2, 6]: A (100)
- Insecticidal effect, Test Example 3 [3, 7]: A (100)

Structure (SMILES): Cc1cc(OC(F)(F)C(F)(Br)C(F)(F)F)ccc1NC(=O)c1ccccc1C(=O)NC(C)C (stereo not drawn) [compound 66]
- Insecticidal effect, Test Example 1 [1]: A (100)
- Insecticidal effect, Test Example 2 [2, 6]: A (100)
- Insecticidal effect, Test Example 3 [3, 7]: B (99-90)

Structure (SMILES): Cc1cc(OC(F)(F)C(F)OC(F)(F)F)ccc1NC(=O)c1ccccc1C(=O)NC(C)C (stereo not drawn) [compound 67]
- Insecticidal effect, Test Example 1 [1]: A (100)
- Insecticidal effect, Test Example 2 [2, 6]: A (100)
- Insecticidal effect, Test Example 3 [3, 7]: A (100)

Structure (SMILES): Cc1cc(Sc2ccc(Cl)cc2)ccc1NC(=O)c1ccccc1C(=O)NC(C)C [compound 77]
- Insecticidal effect, Test Example 1 [1]: A (100)
- Insecticidal effect, Test Example 2 [2, 6]: C (89-80)
- Insecticidal effect, Test Example 3 [3, 7]: A (100)

Structure (SMILES): Cc1cc(Oc2ccc(C(F)(F)F)cn2)ccc1NC(=O)c1ccccc1C(=O)NC(C)C [compound 78]
- Insecticidal effect, Test Example 1 [1]: A (100)
- Insecticidal effect, Test Example 2 [2, 6]: A (100)
- Insecticidal effect, Test Example 3 [3, 7]: A (100)

Structure (SMILES): Cc1cc(Oc2ncc(C(F)(F)F)cc2Cl)ccc1NC(=O)c1ccccc1C(=O)NC(C)C [compound 79]
- Insecticidal effect, Test Example 1 [1]: A (100)
- Insecticidal effect, Test Example 2 [2, 6]: A (100)
- Insecticidal effect, Test Example 3 [3, 7]: D (79-50)

Structure (SMILES): Cc1cc(OC(F)(F)C(F)(Cl)Cl)ccc1NC(=O)c1c(I)cccc1C(=O)NC(C)C [compound 445]
- Insecticidal effect on common cutworm (Test Example 2), judged grade ([2]; cabbage leaf dip, second-instar larvae, eight days after inoculation): B (99-90)
- Insecticidal effect on rice leafroller (Test Example 3), judged grade ([3]; rice lamina dip, third-instar larvae, four days after inoculation): A (100)

Structure (SMILES): Cc1cc(OC(F)F)ccc1NC(=O)c1c(Cl)cccc1C(=O)NCc1ccccc1Cl [compound 1424]
- Insecticidal effect, Test Example 2 ([2]; common cutworm second-instar larvae, eight days after inoculation): A (100)
- Insecticidal effect, Test Example 3 ([3]; rice leafroller third-instar larvae, four days after inoculation): A (100)

Structure (SMILES): Cc1cc(C(F)(F)C(F)(F)F)c(C)cc1NC(=O)c1cccc(I)c1C(=O)NC(C)(C)C [compound 1656]
- Insecticidal effect (Test Example 2), judged from mortality [2, 4]: A (100)
- Insecticidal effect (Test Example 3), judged from mortality [3, 5]: A (100)
